Results: patent publication US20180099931A1 (AbbVie S.à.r.l., priority 2016, published 2018)
Where two headings read alike, the source gives them in different places.

Biological target: T1, F508delCFTR (Homo sapiens, UniProt P13569, DEL508-508)
T1 construct: expressed in transfected cells; host or cells: CFBE41o- human lung-derived epithelial cells (CFBE4lo-F508delCFTR-HRP), doxycycline-inducible
Test: Cell Surface Expression-Horse Radish Peroxidase (CSE-HRP) Assay;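 on Maximum % activity (with co-corrector): co-corrector and positive control are both the same reference corrector at 2 µM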;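 on Maximum % activity (without co-corrector): percent of the 2 µM on-plate positive control corrector response above DMSO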
Type: cell-based
Details: for Maximum % activity (with co-corrector) / Emax / Maximum % activity (without co-corrector): maximum at any tested concentration, normalized to on-plate positive control; for Emax: read-out: Maximum % activity (without co-corrector)

[1] = test compound without co-corrector, read-out: EC50 (without co-corrector)
[2] = with co-corrector (2 μM of 3-[(2R,4R)-4-({[1-(2,2-difluoro-1,3-benzodioxol-5-yl)cyclopropyl]carbonyl}amino)-7-methoxy-3,4-dihydro-2H-chromen-2-yl]benzoic acid), read-out: EC50 (with co-corrector)
[3] = test compound without co-corrector
[4] = with co-corrector (2 μM of 3-[(2R,4R)-4-({[1-(2,2-difluoro-1,3-benzodioxol-5-yl)cyclopropyl]carbonyl}amino)-7-methoxy-3,4-dihydro-2H-chromen-2-yl]benzoic acid)
[5] = CSE-HRP, test compound without co-corrector, read-out: EC50 (without co-corrector)
[6] = CSE-HRP, with co-corrector (2 μM of 3-[(2R,4R)-4-({[1-(2,2-difluoro-1,3-benzodioxol-5-yl)cyclopropyl]carbonyl}amino)-7-methoxy-3,4-dihydro-2H-chromen-2-yl]benzoic acid), read-out: EC50 (with co-corrector)
[7] = CSE-HRP, with co-corrector (2 μM)

T1 sequence (P13569 with tags, fused parts or gaps DEL508-508): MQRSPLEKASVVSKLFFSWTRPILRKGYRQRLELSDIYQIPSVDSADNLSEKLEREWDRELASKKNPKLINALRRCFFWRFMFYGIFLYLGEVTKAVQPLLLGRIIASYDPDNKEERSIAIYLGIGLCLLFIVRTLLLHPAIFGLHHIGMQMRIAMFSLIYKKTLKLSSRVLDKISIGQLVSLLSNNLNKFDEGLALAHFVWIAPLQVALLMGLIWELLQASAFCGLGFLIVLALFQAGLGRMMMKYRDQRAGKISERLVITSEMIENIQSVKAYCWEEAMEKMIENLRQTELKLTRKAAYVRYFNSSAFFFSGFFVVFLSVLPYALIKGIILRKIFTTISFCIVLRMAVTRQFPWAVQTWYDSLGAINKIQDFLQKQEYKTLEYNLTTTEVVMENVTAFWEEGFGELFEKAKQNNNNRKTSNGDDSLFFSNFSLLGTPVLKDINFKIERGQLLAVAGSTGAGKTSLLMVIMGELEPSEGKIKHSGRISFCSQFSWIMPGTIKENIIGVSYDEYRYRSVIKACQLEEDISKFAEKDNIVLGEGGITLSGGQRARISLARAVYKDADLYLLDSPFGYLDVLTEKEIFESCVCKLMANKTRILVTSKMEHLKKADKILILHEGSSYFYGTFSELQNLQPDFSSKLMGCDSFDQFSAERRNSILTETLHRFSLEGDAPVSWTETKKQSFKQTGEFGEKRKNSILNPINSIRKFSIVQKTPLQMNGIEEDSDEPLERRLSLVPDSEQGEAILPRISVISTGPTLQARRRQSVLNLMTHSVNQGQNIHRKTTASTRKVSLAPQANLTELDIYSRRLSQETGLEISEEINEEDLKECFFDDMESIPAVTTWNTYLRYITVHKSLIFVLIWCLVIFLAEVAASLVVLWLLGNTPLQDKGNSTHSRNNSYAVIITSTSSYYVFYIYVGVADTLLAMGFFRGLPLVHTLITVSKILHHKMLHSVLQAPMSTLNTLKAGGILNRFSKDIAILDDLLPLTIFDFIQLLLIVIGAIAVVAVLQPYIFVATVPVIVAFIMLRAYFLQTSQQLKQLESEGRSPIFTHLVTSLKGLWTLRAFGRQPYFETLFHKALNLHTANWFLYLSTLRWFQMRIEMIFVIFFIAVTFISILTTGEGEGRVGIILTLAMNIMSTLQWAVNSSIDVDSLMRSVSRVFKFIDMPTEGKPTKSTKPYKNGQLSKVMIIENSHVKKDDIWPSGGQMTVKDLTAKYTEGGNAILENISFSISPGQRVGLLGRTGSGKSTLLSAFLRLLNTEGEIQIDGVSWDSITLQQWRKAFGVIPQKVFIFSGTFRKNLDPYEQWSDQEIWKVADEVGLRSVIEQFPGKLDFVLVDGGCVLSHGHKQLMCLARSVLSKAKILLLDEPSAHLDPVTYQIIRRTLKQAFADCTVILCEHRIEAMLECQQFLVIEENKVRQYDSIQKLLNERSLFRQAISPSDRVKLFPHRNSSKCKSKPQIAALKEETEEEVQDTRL

Row | Structure (SMILES) | EC50 [1] [nM] | EC50 [2] [nM] | Maximum % activity (with co-corrector) (with co-corrector (2 μM)) | EC50 [5] [nM] | EC50 [6] [nM] | Maximum % activity (with co-corrector) [7] | Emax (CSE-HRP, without co-corrector) [%] | also measured
1 | COc1ncc(C(F)(F)F)cc1CN[C@H]1[C@H](C(C)(C)C)[C@@H](C(=O)O)N(C(=O)[C@H](C)c2ccccc2)[C@H]1c1cccnc1OC [Example I-240] | 1000 to 10000 | 1000 to 10000 | +++ (≥350) |  |  |  |  | Emax (without co-corrector): < 100%
2 | COc1ncc(C2CCC2)cc1CN[C@H]1[C@H](C(C)(C)C)[C@@H](C(=O)O)N(C(=O)OC(C)C)[C@H]1c1ccccc1C [Example 94, (2S,3S,4S,5S)-3-tert-butyl-4-{[(5-cyclobutyl-2-methoxypyridin-3-yl)methyl]amino}-5-(2-methylphenyl)-1-{[(propan-2-yl)oxy]carbonyl}pyrrolidine-2-carboxylic acid] | 1000 to 10000 | < 1000 | +++ (≥350) |  |  |  |  | Emax (without co-corrector): > 200%
3 | COc1ccc(C(C)(C)C)cc1CN[C@H]1[C@H](C(C)(C)C)[C@@H](C(=O)O)N(C(=O)C2OC[C@@H]3CCC[C@H]23)[C@H]1c1ccccc1 (relative stereo) [Example I-107] | 1000 to 10000 | 1000 to 10000 | +++ (≥350) |  |  |  |  | Emax (without co-corrector): > 200%
4 | COc1ncc(-c2ccccc2)cc1CN[C@H]1[C@H](C(C)(C)C)[C@@H](C(=O)O)N(C(=O)C2CCCCC2)[C@H]1c1ccccc1 [Example 25, (2S,3S,4S,5S)-3-tert-butyl-1-(cyclohexanecarbonyl)-4-{[(2-methoxy-5-phenylpyridin-3-yl)methyl]amino}-5-phenylpyrrolidine-2-carboxylic acid] | < 1000 | < 1000 | +++ (≥350) |  |  |  |  | Emax (without co-corrector): 100 to 200%
5 | COc1ccc(C(C)(C)C)cc1CN[C@H]1[C@H](C(C)(C)C)[C@@H](C(=O)O)N(C(=O)OC(C)C)[C@H]1c1ccccc1OC [Example 13, (2S,3S,4S,5S)-3-tert-butyl-4-{[(5-tert-butyl-2-methoxyphenyl)methyl]amino}-5-(2-methoxyphenyl)-1-{[(propan-2-yl)oxy]carbonyl}pyrrolidine-2-carboxylic acid] | 1000 to 10000 | 1000 to 10000 | +++ (≥350) |  |  |  |  | Emax (without co-corrector): 100 to 200%
6 | COc1ccc(C(C)(C)C)cc1CN[C@H]1[C@H](C(C)(C)C)[C@@H](C(=O)O)N(C(=O)C2CCCS2(=O)=O)[C@H]1c1ccccc1 (stereo partly shown) [Example I-192] | 1000 to 10000 | 1000 to 10000 | +++ (≥350) |  |  |  |  | Emax (without co-corrector): 100 to 200%
7 | COc1ncc(C2CCC2)cc1CN[C@H]1[C@H](C(C)(C)C)[C@@H](C(=O)O)N(C(=O)C2CCCCC2)[C@H]1c1ccccc1C(C)C [Example 117, (2S,3S,4S,5S)-3-tert-butyl-4-{[(5-cyclobutyl-2-methoxypyridin-3-yl)methyl]amino}-1-(cyclohexanecarbonyl)-5-[2-(propan-2-yl)phenyl]pyrrolidine-2-carboxylic acid] | < 1000 | < 1000 | +++ (≥350) |  |  |  |  | Emax (without co-corrector): > 200%
8 | CC(C)c1ccccc1[C@H]1[C@@H](NCc2cccc3c2OC(C)(C)C3)[C@H](C(C)(C)C)[C@@H](C(=O)O)N1C(=O)[C@@H]1CCCO1 [Example I-305] |  |  |  | 1000 to 10000 | 1000 to 10000 | +++ (≥350) | 100 to 200 | 
9 | COc1ccc(C(C)(C)C)cc1CN[C@H]1[C@H](C(C)(C)C)[C@@H](C(=O)O)N(C(=O)C2Cc3ccccc3O2)[C@H]1c1cccnc1OC (single isomer, unassigned) [Example I-166] | 1000 to 10000 | < 1000 | +++ (≥350) |  |  |  |  | Maximum % activity (without co-corrector) (without co-corrector): + (<100)
10 | COc1ccc(C(F)(F)F)cc1CN[C@H]1[C@H](C(C)(C)C)[C@@H](C(=O)O)N(C(=O)C2CCCC(F)(F)C2)[C@H]1c1cccnc1OC (relative stereo) [Example I-256] |  |  |  | 1000 to 10000 | < 1000 | +++ (≥350) | > 200 | 
11 | COc1ccc(Cl)cc1CN[C@@H]1[C@@H](C(C)(C)C)[C@H](C(=O)O)N(C(=O)OC(C)C)[C@@H]1c1ccccc1 (racemic) [Example I-12] | 1000 to 10000 | 1000 to 10000 | +++ (≥350) |  |  |  |  | Emax (without co-corrector): > 200%

More lines, main results first:

Row | EC50 [1] [nM] | EC50 [2] [nM] | Maximum % activity (with co-corrector) (with co-corrector (2 μM)) | EC50 [5] [nM] | EC50 [6] [nM] | Maximum % activity (with co-corrector) [7] | Emax (CSE-HRP, without co-corrector) [%] | Structure (SMILES) | also measured
12 | 1000 to 10000 | 1000 to 10000 |  |  |  |  |  | COc1ccc(C(C)(C)C)cc1CN[C@H]1[C@H](C(C)(C)C)[C@@H](C(=O)O)N(C(=O)c2cnn(C)c2-c2ccccc2)[C@H]1c1ccccc1 [II-358] | Emax [3]: < 100%; Maximum % activity (with co-corrector) [4]: +++ (≥350)
13 | 1000 to 10000 | 1000 to 10000 |  |  |  |  |  | COc1ccc(C(C)(C)C)cc1CN[C@H]1[C@H](C(C)(C)C)[C@@H](C(=O)O)N(C(=O)C2CCc3cc(F)ccc3O2)[C@H]1c1cccnc1N(C)C (stereo partly shown) [II-482] | Maximum % activity (without co-corrector) [3]: ++ (≥100 and <200); Maximum % activity (with co-corrector) [4]: +++ (≥350)
14 |  |  |  | 1000 to 10000 | 1000 to 10000 | +++ (≥350) | > 200 | COc1ccc(C(C)(C)C)cc1CN[C@H]1[C@H](C(C)(C)C)[C@@H](C(=O)O)N(C(=O)OCC(C)C)[C@H]1c1ccccc1 [II-264] | 
15 | 1000 to 10000 | < 1000 | +++ (≥350) |  |  |  |  | COc1ccc(C(C)(C)C)cc1CN[C@H]1[C@H](C(C)(C)C)[C@@H](C(=O)O)N(C(=O)C(C)Oc2cc(C)cc(C)c2)[C@H]1c1ccccc1 (stereo partly shown) [III-190] | Emax [3]: > 200%
16 | 1000 to 10000 | < 1000 |  |  |  |  |  | COc1ccc(C(C)(C)C)cc1CN[C@H]1[C@H](C(C)(C)C)[C@@H](C(=O)O)N(C(=O)C2CCc3cc(F)ccc3O2)[C@H]1c1ccccc1 (stereo partly shown) [II-320] | Emax [3]: > 200%; Maximum % activity (with co-corrector) [4]: +++ (≥350)
17 |  |  |  | < 1000 | < 1000 | +++ (≥350) | > 200 | COc1ccc(-c2ccc(C)cc2)cc1CN[C@H]1[C@H](C(C)(C)C)[C@@H](C(=O)O)N(C(=O)C2CCCCC2)[C@H]1c1ccccc1 [II-249] | 
18 | 1000 to 10000 | 1000 to 10000 |  |  |  |  |  | COc1ncc(C(F)(F)F)cc1N[C@H]1[C@H](C(C)(C)C)[C@@H](C(=O)O)N(C(=O)C2CCCCC2)[C@H]1c1cccnc1N(C)C [II-461] | Emax [3]: < 100%; Maximum % activity (with co-corrector) [4]: ++ (≥150 and <350)
19 |  |  |  | 1000 to 10000 | 1000 to 10000 | ++ (≥150 and <350) | < 100 | COc1ccc(C(C)(C)C)cc1CN[C@H]1[C@H](C(C)(C)C)[C@@H](C(=O)O)N(C(=O)CN2CCCC2)[C@H]1c1ccccc1 [II-187] | 
20 |  |  |  | < 1000 | < 1000 | +++ (≥350) | < 100 | COc1ccc(C(C)(C)C)cc1CN[C@H]1[C@H](C(C)(C)C)[C@@H](C(=O)O)N(C(=O)c2coc3ccccc23)[C@H]1c1ccccc1 [II-185] | 
21 | 1000 to 10000 | 1000 to 10000 |  |  |  |  |  | CCCOC(=O)N1[C@H](C(=O)O)[C@@H](C(C)(C)C)[C@H](NCc2cc(C(C)(C)C)ccc2OC)[C@@H]1c1ccccc1 [II-390] | Emax [3]: > 200%; Maximum % activity (with co-corrector) [4]: +++ (≥350)
22 | 1000 to 10000 | 1000 to 10000 |  |  |  |  |  | COc1ncc(C2CCC2)cc1CN[C@H]1[C@H](C(C)(C)C)[C@@H](C(=O)O)N(C(=O)c2ccc3c(c2)OCCO3)[C@H]1c1ccccc1 [II-475] | Emax [3]: < 100%; Maximum % activity (with co-corrector) [4]: ++ (≥150 and <350)
23 | 1000 to 10000 | 1000 to 10000 |  |  |  |  |  | CC(C)OC(=O)N1[C@H](c2ccccc2)[C@H](Nc2cccc(C(F)(F)F)n2)[C@@H](C(C)(C)C)[C@@H]1C(=O)O (racemic) [III-44] | Emax [3]: < 100%; Maximum % activity (with co-corrector) [4]: ++ (≥150 and <350)
24 |  |  |  | 1000 to 10000 | 1000 to 10000 | +++ (≥350) | > 200 | COc1ccc(Cl)cc1CN[C@@H]1[C@@H](C(C)(C)OC)[C@H](C(=O)O)N(C(=O)C2CCCCC2)[C@@H]1c1ccccc1 (racemic) [II-79] | 
25 |  |  |  | 1000 to 10000 | 1000 to 10000 | +++ (≥350) | 100 to 200 | COc1cc(C(F)(F)F)ccc1CN[C@@H]1[C@@H](C(C)(C)OC)[C@H](C(=O)O)N(C(=O)C2CCCCC2)[C@@H]1c1ccccc1 (racemic) [II-88] | 
26 |  |  |  | 1000 to 10000 | 1000 to 10000 | +++ (≥350) | 100 to 200 | COc1ccc(C(C)(C)C)cc1CN[C@H]1[C@H](C(C)(C)C)[C@@H](C(=O)O)N(C(=O)Cc2ccc(F)cc2)[C@H]1c1ccccc1 [II-181] | 
27 | 1000 to 10000 | < 1000 |  |  |  |  |  | COc1ccc(C(C)(C)C)cc1CN[C@H]1[C@H](C(C)(C)C)[C@@H](C(=O)O)N(C(=O)[C@@H]2[C@@H](C(F)(F)F)[C@@H]3CC[C@H]2O3)[C@H]1c1ccccc1 (relative stereo) [II-505] | Emax [3]: > 200%; Maximum % activity (with co-corrector) [4]: +++ (≥350)
28 |  |  |  | 1000 to 10000 | 1000 to 10000 | +++ (≥350) | < 100 | CC(C)(C)[C@@H]1[C@@H](NCc2cc(Cl)ccc2OC(F)F)[C@@H](c2ccccc2)N(C(=O)C2CCCCC2)[C@H]1C(=O)O (racemic) [II-8] | 
